Where a SMILES comes first, the peptide text is derived from it. Bridges are numbered along the chain shown (N, C = ends). [ ]: non-standard residue; d: D form. S5 = C=CCCC[C@](C)(N)C(=O)O
Tests used:
[1] = Inhibition of pERK in human ASPC1 cells measured after 1 hr
[2] = Inhibition of pERK in human ASPC1 cells measured after 18 hr
GTPase KRas = GTPase KRas (Homo sapiens, UniProt P01116); experiment: Binding affinity to KRas G12C mutant (unknown origin) assessed as dissociation constant by biolayer interferometry assay
Chain of GTPase KRas (P01116 whole entry G12C): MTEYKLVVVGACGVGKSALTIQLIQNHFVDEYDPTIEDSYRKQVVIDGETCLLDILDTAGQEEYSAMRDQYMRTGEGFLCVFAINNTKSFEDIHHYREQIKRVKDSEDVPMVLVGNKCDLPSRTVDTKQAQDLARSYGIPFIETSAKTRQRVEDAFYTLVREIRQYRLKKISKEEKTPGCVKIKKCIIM

EC50 [1] [nM] | EC50 [2] [nM] | SMILES | Kd (GTPase KRas) [nM]
1200 | 1500 | CC[C@H](C)[C@@H]1NC(=O)[C@H](Cc2ccc(O)cc2)NC(=O)[C@H](CC(C)C)NC(=O)[C@@H]2CCCN2C(=O)[C@H](NC(=O)[C@@H](CCCNC(=N)N)NC(=O)[C@@H](CCCNC(=N)N)NC(=O)[C@@H](CCCNC(=N)N)NC(=O)[C@@H](CCCNC(=N)N)NC(=O)[C@H](CCCCN=[N+]=[N-])NC(C)=O)CSSC[C@@H](C(=O)N[C@H](CCCNC(=N)N)C(=O)N[C@H](CCCNC(=N)N)C(=O)N[C@H](CCCNC(=N)N)C(=O)N[C@H](CCCNC(=N)N)C(N)=O)NC(=O)[C@H](C(C)C)NC(=O)[C@@H]2CCCN2C(=O)[C@H](CC(=O)O)NC(=O)[C@H](Cc2ccc(O)cc2)NC(=O)[C@](C)(CO)NC1=O | 
 |  | CC[C@H](C)[C@H](NC(=O)CNC(=O)[C@H](Cc1ccccc1)NC(C)=O)C(=O)N[C@@]1(C)CCCC=CCCC[C@@](C)(C(=O)N[C@@H](CC(C)C)C(=O)N[C@@H](CCCCN)C(=O)N[C@H](C(N)=O)[C@@H](C)O)NC(=O)[C@H](CC(N)=O)NC(=O)[C@H]([C@@H](C)O)NC(=O)[C@H](CC(C)C)NC1=O (Ac-FGI[S5]LTN[S5]LKT-NH2; staple 4-8) | 7670
